Results reported in US8889345B2, “Detection methods of NADP(H) using mBFP” (priority 2012, dated 2014).

Experiments:
Alcohol dehydrogenase = assay: Inhibitor IC50 against NADPH dependent oxidoreductase, by his-mBFP fluorescence quantification of NADPH; format: biochemical; conditions: compounds added at 0.1 to 10 mM, sigma plot
Description: (§1) As an example of typical reactions, first, 0.02 units of glutathione reductase was reacted with 50 mM potassium phosphate buffer (pH 7.5) containing 5 mM of oxidized glutathione (GSSG) and 2 mM NADPH at room temperature, and then fluorescence was measured. In addition, 0.03 units of isocitrate dehydrogenase was reacted with 50 mM phosphate buffer (pH 7.2) containing 5 mM isocitrate, 2 mM MgCl2, and 2 mM NADP+ at room temperature, and then fluorescence was measured. In addition, 0.02 units of glucose-6-phosphate dehydrogenase was reacted with 50 mM Tris-HCL buffer (pH 7.5) containing 5 mM glucose-6-phosphate, 50 mM MgCl2, and 2 mM NADP+ at room temperature, and then fluorescence was measured. Further, 0.04 units of malate dehydrogenase was reacted with 50 mM Tris-HCL buffer (pH 7.5) containing 5 mM L-malate, 50 mM MgCl2, and 2 mM NADP+ at room temperature, and then fluorescence was measured. In addition, 0.02 units of NADPH oxidase was reacted with 50 mM phosphate buffered saline (PBS) containing 50 mM MgCl2 and 2 mM NADP+ at room temperature, and then fluorescence was measured. At the time of measuring the fluorescence, the reaction solution was diluted in consideration of mole ratio with his-mBFP.
(§2) In addition, the present invention may selectively select an activity inhibitor by restricting the library in the above-mentioned process with a clone having an oxidation/reduction enzyme family, adding a specific compound as well as a substrate in a process of measuring the activities of these enzymes, calculating a changed amount of NADP(H) to compare the calculated value with that of a control group (only substrate was add). These processes mean that after clones having related enzyme activities are cultured and a substrate and NADP(H) are added thereto, a changed amount of NADPH is quantified while inducing a reaction in an environment in which various synthetic materials are present.
(§3) In more detail, compounds having a possibility as the activity inhibitor were added to reaction solution of NADPH dependent oxidoreductase as in Example 7 at each concentration (0.1 to 10 mM). While the reaction was carried out, a produced amount of NADPH according to addition of each compound was quantified, and an inhibition degree of specific enzyme activity was confirmed by comparing the produced amount of NADPH in the case of adding the compound (test group) with that of in the case of not adding (control group).
(§4) After rates of NADPH production (reduction) reaction according to the concentration changes of primary selected compounds were measured, IC50 of each compound was calculated using a sigma plot program.

[1] = target: T1, Glucose-6-phosphate dehydrogenase (UniProt P11412); assay: as above; format: biochemical; conditions: compounds added at 0.1 to 10 mM, sigma plot
T1 sequence (P11412 1-505): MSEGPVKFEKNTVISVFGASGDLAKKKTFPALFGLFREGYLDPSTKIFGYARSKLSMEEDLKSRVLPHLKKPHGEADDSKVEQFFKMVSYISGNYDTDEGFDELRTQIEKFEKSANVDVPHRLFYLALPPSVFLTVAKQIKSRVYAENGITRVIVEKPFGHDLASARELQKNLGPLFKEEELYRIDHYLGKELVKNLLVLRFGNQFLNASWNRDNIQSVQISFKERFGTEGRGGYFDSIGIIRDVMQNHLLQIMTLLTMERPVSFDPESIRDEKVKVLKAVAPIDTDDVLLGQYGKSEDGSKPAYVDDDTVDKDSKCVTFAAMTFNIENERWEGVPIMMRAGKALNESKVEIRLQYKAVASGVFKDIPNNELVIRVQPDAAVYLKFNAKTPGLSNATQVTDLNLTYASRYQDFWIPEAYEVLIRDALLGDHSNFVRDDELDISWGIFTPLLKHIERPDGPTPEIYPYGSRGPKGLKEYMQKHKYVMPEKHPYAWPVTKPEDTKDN
Description: as §1, §2, §3, §4

Isocitrate dehydrogenase = assay: as above; format: biochemical; conditions: compounds added at 0.1 to 10 mM, sigma plot
Description: as §1, §2, §3, §4

[2] = Retention of fluorescence of his-mBFP according to storage method; format: physicochemical
Description: In order to search a long-term storage method for his-mBFP requiring retention of the structure that is an important factor in fluorescence activity, suitable protein storage methods were observed. As storage conditions, degrees of reduction of fluorescence according to time were confirmed at different temperatures (4° C., −20° C., −80° C.) and different concentrations of additives for storage (5% trehalose, 25% glycerol, 50% glycerol, based on final concentration).
Among his-mBFP samples stored under each of the conditions, in the case of frozen samples, the sample was sufficiently hydrated in a cool buffer for 5 to 45 minutes in consideration of reconstruction of the structure, time required for restoration, or the like, and then was used in the experiment.

`Cc1cn[nH]c1` [Formepizole] showed an IC50 (Alcohol dehydrogenase) of 40.6 ± 5.8 µM.

Molecule `OC[C@H]1O[C@@H](Oc2cc(O)cc(/C=C/c3ccc(O[C@@H]4O[C@H](CO)[C@@H](O)[C@H](O)[C@H]4O)cc3O)c2)[C@H](O)[C@@H](O)[C@@H]1O` [Mulberroside A] has an IC50 (Alcohol dehydrogenase) of 48.9 ± 4.9 µM.

`COc1ccc(/C=C/c2cc(O)cc(O[C@@H]3O[C@H](CO)[C@@H](O)[C@H](O)[C@H]3O)c2)cc1O` [Rhaponticin] gave an IC50 (Alcohol dehydrogenase) of 61.2 ± 4.1 µM.

In the case of `O=C(O[C@@H]1Cc2c(O)cc(O)cc2O[C@@H]1c1ccc(O)c(O)c1)c1cc(O)c(O)c(O)c1` [epicatechin gallate], the IC50 [1] is reported as 235 ± 37.8 µM.

Work on `O=C(O[C@@H]1Cc2c(O)cc(O)cc2O[C@H]1c1cc(O)c(O)c(O)c1)c1cc(O)c(O)c(O)c1` [gallocatechin gallate] yielded an IC50 [1] of 225 ± 28.6 µM.

Work on `CC(O)(C(=O)O)C(CC(=O)O)C(=O)O` (stereo not drawn) [methylisocitric acid] yielded an IC50 (Isocitrate dehydrogenase) of 102 ± 7.4 µM.

`O=C(O)C(=O)C(C(=O)O)C(O)C(=O)O` (stereo not drawn) [oxalomalic acid] gave an IC50 (Isocitrate dehydrogenase) of 63.3 ± 5.2 µM.

B1: his-mBFP: metagenome-derived blue fluorescent protein with histidine tag, amino acid sequence SEQ ID NO: 3 (protein)
chain: MRGSHHHHHHGSACQNLNGKVAFVTGGSRGIGAAIVRRLAADGADIAFTYVSASSKNVATALVQELEAKGRRARAIQADSADPAQVRQAVEQAIVQLGPVDVLVNNAGIFLAGPLGEVTLDDYERTMNINVRAPFVAIQAAQASMPDGGRIINIGSCLAERAGRAGVTLYAASKSALLGMTRGLARDLGARGITANVVHPGPIDTDMNPADGERSGELVAVLSLPHYGEVRDIAGMVAFLAGPDGRYVTGASLAVDGGFAA
modifications: synthetic construct of His-tagged metagenome-derived blue fluorescent protein (mBFP)
Work on B1 yielded a fluorescence maintained ([2]; after 6 months, additive (25% to 50%) added) of at least 90%, a fluorescence maintained ([2]; both cool and frozen conditions after 6 months) of at least 80% and a fluorescence maintained ([2]; cold room at 4° C. for 2 months, solution state, no additive for storage) of at least 80%. It also gave a fluorescence maintained ([2]; freezer at −20 to −80° C. for 2 months with an additive for storage) of at least 95% and a fluorescence intensity maintained ([2]; glycerol final concentration 50%, freezer at −80° C.) of at least 90%.
